One data set relates to NMRI mice. Put plainly: Anorectic action: cumulated evaporated milk consumption after oral administration. The class given is in vivo. The following applies: for cumulated milk consumption of the treated animals (male): oral dose 50 mg/kg via stomach tube, male NMRI mice after 24 hours feed withdrawal, milk offered 30 minutes after dosing, consumption determined half-hourly for 7 hours; for Reduction of the cumulated milk consumption in % of the control: oral dose 50 mg/kg, male NMRI mice, compared with untreated control animals. The protocol: The anorectic action was tested on male or female NMRI mice. After withdrawal of feed for 24 hours, the test preparation was administered via a stomach tube. Kept individually and with free access to drinking water, the animals were offered evaporated milk 30 minutes after giving the preparation. The consumption of evaporated milk was determined half-hourly for 7 hours and the general condition of the animals was observed. The measured milk consumption was compared with that of the untreated control animals.

Where “and” joins values, the source holds several entries; their conditions need not be identical. Identical values can stand only once.

For the compound `CC(C)(C)c1ccc(OCC2=NC3(O)c4ccc(Cl)cc4CC3S2)cc1` (single isomer, unassigned) [Example 3], in the data set on NMRI mice (50 mg/kg), the “cumulated milk consumption of the treated animals (male)” value (shortened to “cumulated milk consumption … (male)”) is listed as 5/0.78 ml and the “Reduction of the cumulated milk consumption in % of the control” value (“Reduction … in % of the control” for short) is recorded as 73%.
Turning to `CC(C)(C)c1ccc(OCC2=NC3(O)c4ccc(Cl)cc4CC3S2)cc1` (single isomer, unassigned) [Example 9, 2-(4-tert-butylphenoxymethyl)-6-chloro-8,8a-dihydroindeno [1,2-d]thiazol-3a-ol], the melting point was 123 °C and 122 to 124 °C. Moreover, in the data set with NMRI mice (50 mg/kg), the “cumulated milk consumption … (male)” value is given as 5/0.26 ml and the “Reduction … in % of the control” value is 93%.
In turn, `OC12N=C(COc3ccccc3)SC1Cc1cc(Cl)ccc12` (stereo not shown) [Example 1, 6-chloro-2-phenoxymethyl-8,8a-dihydroindeno[1,2-d]thiazol-3a-ol] had a melting point of 121 °C. In addition, in the data set with NMRI mice, the “cumulated milk consumption … (male)” value was 5/0.42 ml and the “Reduction … in % of the control” value came to 86%.
Take `Br.OC12N=C(COc3ccc(Cl)cc3Cl)SC1Cc1cc(Cl)ccc12` (stereo not shown) [Example 2]: in the data set with NMRI mice (50 mg/kg), the “cumulated milk consumption … (male)” value is on record as 5/0.34 ml and the “Reduction … in % of the control” value is listed as 88%.
For the compound `Br.OC12N=C(COc3ccc(Cl)cc3Cl)SC1Cc1cc(Cl)ccc12` (stereo not shown) [Example 6, 6-Chloro-2-(2,4-dichlorophenoxymethyl)-8,8a-dihydroindeno[1,2-d]thiazol-3a-ol Hydrobromide], the melting point is 170 °C. For the same compound, in the data set with NMRI mice (Hydrobromide, 50 mg/kg), the “cumulated milk consumption … (male)” value is 5/0.22 ml and the “Reduction … in % of the control” value came to 95%.
As for `OC12N=C(CSCc3ccccc3)SC1Cc1cc(Cl)ccc12` (stereo not shown) [Example 12, 2-Benzylsulfanylmethyl-6-chloro-8,8a-dihydroindeno [1,2-d]thiazol-3a-ol], the melting point is 102 to 104 °C and 102 °C. Besides, in the data set on NMRI mice, the “cumulated milk consumption … (male)” value is 5/1.36 ml and the “Reduction … in % of the control” value is given as 71%.

The values above are taken from US6387935B1, “Polycyclic dihydrothiazoles having substituted alkyl radicals in the two-position, process for their preparation, and their use as pharmaceuticals” (Aventis Pharma Deutschland GmbH, priority 1999, dated 2002).
